US10413535B2, “Pharmaceutical compositions comprising an integrin ALPHA4 antagonist for use in treating ocular inflammatory conditions” (AXEROVISION, INC., priority 2015, dated 2019)

Legend:
[1] = system: 53 receptors and 4 transporters; assay: MDS Pharma screen, radioligand binding assays; details: at 10 μM
[2] = system: RPMI 8866 binding to VCAM-1; assay: VCAM cell adhesion assay, RPMI 8866 cells; format: cell-based; details: Homo sapiens; RPMI 8866 cells to VCAM-1; read-out: Inhibition of cell adhesion (IC50)
Description: (§1) Jurkat J6 cells (human lymphoblast cell line) were grown as a suspension culture in RPMI 1640 supplemented with FCS (10%) and glutamine (2 mM). RPMI8866 cells (human B lymphoid cell line) were grown as a suspension culture in RPMI 1640 supplemented with FCS (10%) and glutamine (2 mM). RBL-2H3 cells (rat basophilic cell line) were cultured in Eagle's MEM plus Earles salts supplemented with 2 mM L-glutamine, 1 mM sodium pyruvate, 1× non-essential amino acids, 1 mM Na pyruvate 10% heat inactivated foetal calf serum.
Polystyrene 96-well microtitre plates were coated with IgG at a concentration of 0.05 mg/mL in bicarbonate buffer for 2 hours at 37° C. The solution was aspirated and the plates washed twice with PBS. The plates were then incubated overnight at 4° C. with a 1:4000 dilution of VCAM-1 of 3% BSA in PBS. Prior to use the VCAM-1 was aspirated and the plates washed twice with PBS.
(§2) J6 or RPMI cells (as required) were labelled with the fluorescent dye BCECF-AM (10 μM and 6×10^6 cells/mL) for 10 min at 37° C. before the excess was removed by centrifugation at 500 g for 5 min and the cells resuspended at a cell concentration of 1.2×10^7 cells/mL in HBSS. Equal volumes HBSS containing the compound of formula I (over concentration range 38.1 pM to 10 μM) and cells were added to the VCAM-1 coated plates. […] The plates were counted in a Wallac Viktor.

conjunctival CD4 T cells = assay: Conjunctival T cell infiltration (CD4 immunohistochemistry), desiccating stress model; format: in vivo, mouse; details: topical 30 mg/mL, 60 μg per eye, 5 days DS
Description: Female C57BL/6 mice, aged 6 to 8 weeks, were subjected to DS for 5 days (DS5) as described previously (de Paiva et al., 2006b; Niederkorn et al., 2006). Topical bilateral treatment with 1 eye drop per eye (2 μL volume) or subcutaneous injection (4 μL volume), 2 times per day, was initiated on day 1 concurrently with DS and continued through day 4. Treatment with the compound of formula I or dexamethasone phosphate 0.1% was compared to correspondingly treated vehicle controls. Mice were randomized to receive one of the test articles. […] Treatment effects were assessed on corneal staining with Oregon Green Dextran (OGD); expression of inflammatory markers in ocular surface tissues by real time PCR; cell population analysis in draining cervical lymph nodes by FACS analysis; conjunctival T cell infiltration by immunohistochemistry.
For immunohistochemistry, the eyes and adnexa of 5 mice/group (n=5) were excised, embedded in optimal cutting temperature (OCT compound; VWR, Suwanee, Ga.), and flash frozen in liquid nitrogen. […] Positively stained cells were counted in the goblet cell rich area of the conjunctiva, over a length of at least 500 μm in the epithelium for a distance of 500 μm using image-analysis software (NIS Elements Software, version 3.0, BR, Nikon). […]

[3] = system: J6 cell adhesion to MAdCAM; assay: MAdCAM cell adhesion assay, J6 cells; format: cell-based, human
Description: as §1
as §2, with “Polystyrene 96-well microtitre plates were coated with IgG at a concentration of 0.05 mg/mL in bicarbonate buffer for 2.5 hours at 37° C. The solution was aspirated and the plates washed twice with PBS. The plates were then incubated overnight at 4° C. with MAdCAM at a concentration of 204.0 ng/mL in 3% BSA in PBS. Prior to use the MAdCAM was aspirated and the plates washed twice with PBS. J6” for “J6”, “volumes of” for “volumes”, “MAdCAM” for “VCAM-1”

Q: Which results are given for `Cc1ccccc1OCC(=O)N[C@@H](CC(C)C)C(=O)N[C@@H](Cc1ccc(OC(=O)N2CCC(C(N)=O)CC2)cc1)C(=O)O` [GW559090, (2S)-3-[4-({[4-(Aminocarbonyl)-1-piperidinyl]carbonyl}oxy)phenyl]-2-[((2S)-4-methyl-2-{[2-(2-methylphenoxy)acetyl]amino}pentanoyl)amino]propanoic acid]?
A: Inhibition in radioligand binding assays [1]: No significant inhibition; IC50 [2]: 4.81 nM; Conjunctival T cell infiltration (cell density) (conjunctival CD4 T cells): decreases; Inhibition of J6 cell adhesion to MAdCAM (curve form) [3]: biphasic
